Measured values published in PubChem BioAssay AID262 (DTP/NCI, 2004).
Values joined by “and” are separate entries in the source; they are usually repeats but may differ in a detail not shown here. Identical values can stand only once. Starred links: 1 amine or outer side, 2 acyl side, 3 side chain; linkers in the order of their positions; H or OH if unused. Positions of bridges follow the written chain, without caps; N, C: chain ends. Non-standard residues stand in square brackets, D forms with d. Residues, ends and D or L forms follow the SMILES beside them. Chains are numbered I, II in the order given. Actinocin(9to1) = Cc1c2oc3c(C)ccc(C(=O)[*:1])c3nc-2c(C(=O)[*:2])c(N)c1=O; aThr = C[C@H](O)[C@H](N)C(=O)O; NMeV = CN[C@H](C(=O)O)C(C)C; Sar = CNCC(=O)O

Test system: LX-1 lung xenograft sc, nude mice, tumor weight
Test: NCI In Vivo Anticancer Drug Screen. Data for tumor model Human Lung LX-1 Xenograft (subcutaneous) in NU/NU Swiss (nude) mice
Conditions: endpoint: optimum tumor weight change, schedule: Q04DX003 (ip), higher = larger tumour
Protocol: The antitumor activity of compounds was measured in mice bearing transplantable tumors. Survival or tumor size were measured and the results are expressed as the measurement made in the treated group (T) divided by the measurement made in the vehicle treated control group (C). The tumor model used in this assay is Human Lung LX-1 Xenograft (subcutaneous) in NU/NU Swiss (nude) mice

[1] = dose: 15.0 mg/kg/injection, vehicle: saline
[2] = dose: 30.0 mg/kg/injection, vehicle: saline
[3] = dose: 400.0 mg/kg/injection, vehicle: saline with Tween-80
[4] = dose: 800.0 mg/kg/injection, vehicle: saline with Tween-80
[5] = dose: 200.0 mg/kg/injection, vehicle: saline
[6] = dose: 400.0 mg/kg/injection, vehicle: saline
[7] = dose: 800.0 mg/kg/injection, vehicle: saline
[8] = dose: 50.0 mg/kg/injection, vehicle: saline with Tween-80
[9] = dose: 100.0 mg/kg/injection, vehicle: saline with Tween-80
[10] = dose: 25.0 mg/kg/injection, vehicle: Klucel (hydroxypropylcellulose) (HPC)
[11] = dose: 8.0 mg/kg/injection, vehicle: saline
[12] = dose: 16.0 mg/kg/injection, vehicle: saline
[13] = dose: 200.0 mg/kg/injection, vehicle: suspension in saline
[14] = dose: 400.0 mg/kg/injection, vehicle: suspension in saline
[15] = dose: 800.0 mg/kg/injection, vehicle: suspension in saline
[16] = dose: 5.0 mg/kg/injection, vehicle: Klucel (hydroxypropylcellulose) (HPC)
[17] = dose: 10.0 mg/kg/injection, vehicle: Klucel (hydroxypropylcellulose) (HPC)
[18] = dose: 4.0 mg/kg/injection, vehicle: saline

With `Cc1c(N)nc(C(CC(N)=O)NCC(N)C(N)=O)nc1C(=O)NC(C(=O)NC(C)C(O)C(C)C(=O)NC(C(=O)NCCc1nc(-c2nc(C(=O)NCCCNC(C)c3ccccc3)cs2)cs1)C(C)O)C(OC1OC(CO)C(O)C(O)C1OC1OC(CO)C(O)C(OC(N)=O)C1O)c1cnc[nH]1` (configuration not stated) the T/C [1] was 35 % of control and the T/C [2] was 35 % of control.
For `Oc1ccc(O)cc1`, the T/C (dose: 50.0 mg/kg/injection, vehicle: saline) was 201 % of control.
With `O=C(NC1CCCCC1)OCc1c(COC(=O)NC2CCCCC2)c(-c2ccc(Cl)c(Cl)c2)n2c1CCC2` the T/C (dose: 200.0 mg/kg/injection, vehicle: saline with Tween-80) was 89 % of control, the T/C [3] was 88 % of control and the T/C [4] was 73 % of control.
In the case of `N=c1nc2n(cc1F)[C@@H]1O[C@H](CO)[C@@H](O)[C@@H]1O2`, the T/C (dose: 100.0 mg/kg/injection, vehicle: saline) was 67 % of control, the T/C [5] was 59 % of control and the T/C [6] was 78 % of control. The T/C [7] was 72 % of control.
In the case of `CC(=O)Oc1ccc[nH]c1=O`, the T/C [8] was 91 % of control, the T/C [9] was 81 % of control and the T/C [3] was 76 % of control. The T/C [4] was 73 % of control.
`CCc1ccccc1N1CCN(C(=O)c2cc(OC)c(OC)c(OC)c2)CC1` was tested, and the T/C [10] was 62 % of control and 85 % of control and the T/C (dose: 100.0 mg/kg/injection, vehicle: Klucel (hydroxypropylcellulose) (HPC)) was 60 % of control.
`O=c1[nH]c2c(ccc3cnccc32)c2c1CCC2` was tested, and the T/C (dose: 12.5 mg/kg/injection, vehicle: suspension in saline) was 35 % of control, the T/C (dose: 25.0 mg/kg/injection, vehicle: suspension in saline) was 70 % of control and the T/C (dose: 50.0 mg/kg/injection, vehicle: suspension in saline) was 61 % of control.
For `O=Cc1ccc(O)c(O)c1`, the T/C (dose: 12.5 mg/kg/injection, vehicle: saline with Tween-80) was 91 % of control, the T/C (dose: 25.0 mg/kg/injection, vehicle: saline with Tween-80) was 107 % of control and the T/C [8] was 114 % of control.
In the case of `C=CC(=O)N1CN(C(=O)C=C)CN(C(=O)C=C)C1`, the T/C (dose: 1.5 mg/kg/injection, vehicle: saline with Tween-80) was 89 % of control, the T/C (dose: 3.0 mg/kg/injection, vehicle: saline with Tween-80) was 62 % of control and the T/C (dose: 6.0 mg/kg/injection, vehicle: saline with Tween-80) was 80 % of control.
In the case of `COc1cc2c[n+](C)c3c4cc5c(cc4ccc3c2cc1OC)OCO5`, the T/C (dose: 20.0 mg/kg/injection, vehicle: saline with Tween-80) was 105 % of control, the T/C (dose: 40.0 mg/kg/injection, vehicle: saline with Tween-80) was 34 % of control and the T/C (dose: 80.0 mg/kg/injection, vehicle: saline with Tween-80) was 54 % of control.
For `O=C(O)CP(=O)(O)O`, the T/C [6] was 98 % of control, the T/C [7] was 90 % of control and the T/C (dose: 1600.0 mg/kg/injection, vehicle: saline) was 75 % of control.
For `CCCCNCCCNCCCNC(=O)c1csc(-c2csc(CCNC(=O)C(NC(=O)C(C)C(O)C(C)NC(=O)C(NC(=O)c3nc(C(CC(N)=O)NCC(N)C(N)=O)nc(N)c3C)C(OC3OC(CO)C(O)C(O)C3OC3OC(CO)C(O)C(OC(N)=O)C3O)c3cnc[nH]3)C(C)O)n2)n1` (configuration not stated), the T/C [11] was 56 % of control, the T/C [1] was 19 % of control and the T/C [12] was 30 % of control. The T/C [2] was 20 % of control, the T/C (dose: 32.0 mg/kg/injection, vehicle: saline) was 26 % of control and the T/C (dose: 64.0 mg/kg/injection, vehicle: saline) was 19 % of control. For the same molecule, the T/C (dose: 128.0 mg/kg/injection, vehicle: saline) was 1 % of control.
In the case of `Cc1c2oc3c(C)ccc(C(=O)N[C@@H]4C(=O)N[C@H](C(C)C)C(=O)N5CCC[C@H]5C(=O)N(C)CC(=O)N(C)[C@@H](C(C)C)C(=O)O[C@H]4C)c3nc-2c(C(=O)N[C@@H]2C(=O)N[C@H](C(C)C)C(=O)N3CCC[C@H]3C(=O)N(C)CC(=O)N(C)[C@@H](C(C)C)C(=O)O[C@H]2C)c(N)c1=O` (I: [aThr][dV]P[Sar][NMeV] / II: [aThr][dV]P[Sar][NMeV]; ester I:1-I:C, II:1-II:C; linker I:N-II:N via Actinocin(9to1)), the T/C (dose: 150.0 micrograms/kg/injection, vehicle: saline) was 122 % of control and the T/C (dose: 300.0 micrograms/kg/injection, vehicle: saline) was 106 % of control.
With `Nc1nc(N)c2cc(CNc3ccc(C(=O)NC(CC(=O)O)CC(=O)O)cc3)ccc2n1` the T/C (dose: 6.25 mg/kg/injection, vehicle: Klucel (hydroxypropylcellulose) (HPC)) was 66 % of control, the T/C (dose: 12.5 mg/kg/injection, vehicle: Klucel (hydroxypropylcellulose) (HPC)) was 71 % of control and the T/C [10] was 78 % of control.
With `O=C(NO)c1ccccc1` the T/C (dose: 100.0 mg/kg/injection, vehicle: suspension in saline) was 95 % of control, the T/C [13] was 68 % of control and 84 % of control and the T/C [14] was 55 % of control and 80 % of control. For the same molecule, the T/C [15] was 85 % of control.
In the case of `CNC=O`, the T/C [5] was 64 % of control and 82 % of control and 86 % of control, the T/C [13] was 56 % of control and 67 % of control and the T/C [6] was 38 % of control and 41 % of control and 49 % of control. For the same molecule, the T/C [14] was 37 % of control and 57 % of control, the T/C [7] was 12 % of control and 23 % of control and the T/C [15] was 25 % of control and 30 % of control.
In the case of `Cc1c(N)nc([C@H](CC(N)=O)NC[C@H](N)C(N)=O)nc1C(=O)N[C@H](C(=O)N[C@H](C)[C@@H](O)CC(=O)N[C@H](C(=O)NC(O[C@@H]1O[C@@H](C)[C@@H](N)[C@@H](O)[C@H]1O)C(O)c1nc(-c2nc(C(=O)NCCCCN)cs2)cs1)[C@@H](C)O)[C@@H](O[C@@H]1O[C@@H](CO)[C@@H](O)[C@H](O)[C@@H]1O[C@H]1O[C@H](CO)[C@@H](O)[C@H](OC(N)=O)[C@@H]1O)c1c[nH]cn1` (some centres not stated), the T/C (dose: 2.0 mg/kg/injection, vehicle: saline) was 77 % of control.
For `NC(Cc1ccc(N(CCCl)CCCl)cc1)C(=O)O` (configuration not stated), the T/C [16] was 66 % of control.
With `Nc1ccc(Cl)cc1N` the T/C [9] was 101 % of control.
With `O=NN(CCCl)C(=O)NC1CCCCC1` the T/C [17] was 44 % of control and the T/C (dose: 20.0 mg/kg/injection, vehicle: Klucel (hydroxypropylcellulose) (HPC)) was 32 % of control.
For `O=c1[nH]cnc2n[nH]nc12`, the T/C (dose: 200.0 mg/kg/injection, vehicle: Klucel (hydroxypropylcellulose) (HPC)) was 111 % of control, the T/C (dose: 400.0 mg/kg/injection, vehicle: Klucel (hydroxypropylcellulose) (HPC)) was 59 % of control and the T/C (dose: 800.0 mg/kg/injection, vehicle: Klucel (hydroxypropylcellulose) (HPC)) was 94 % of control.
In the case of `Cc1c(N)nc(C(CC(N)=O)NCC(N)C(N)=O)nc1C(=O)NC(C(=O)NC(C)C(O)CC(=O)NC(C(=O)NC(OC1OC(C)C(N)C(O)C1O)C(O)c1nc(-c2nc(C(=O)NCCCC(N)CC(=O)NCCCNCCCCN)cs2)cs1)C(C)O)C(OC1OC(CO)C(O)C(O)C1OC1OC(CO)C(O)C(OC(N)=O)C1O)c1cnc[nH]1` (configuration not stated), the T/C [18] was 52 % of control and the T/C [11] was 23 % of control.
`CC(=O)OCC1OC(n2ccc(N)nc2=O)C(OC(C)=O)C1OC(C)=O` (configuration not stated) was tested, and the T/C [13] was 102 % of control and the T/C [14] was 78 % of control.
With `CC1CCC(NC(=O)N(CCCl)N=O)CC1` (configuration not stated) the T/C [16] was 73 % of control and the T/C [17] was 32 % of control.
`Cc1c(N)nc([C@H](CC(N)=O)NC[C@H](N)C(N)=O)nc1C(=O)N[C@H](C(=O)N[C@H](C)[C@@H](O)[C@H](C)C(=O)N[C@H](C(=O)NCCc1nc(-c2nc(C(=O)NCCC[S+](C)C)cs2)cs1)[C@@H](C)O)C(OC1OC(CO)C(O)C(O)C1OC1OC(CO)C(O)C(OC(N)=O)C1O)c1cnc[nH]1` (some centres not stated) was tested, and the T/C (dose: 3.75 mg/kg/injection, vehicle: saline) was 45 % of control, the T/C [18] was 70 % of control and the T/C [12] was 49 % of control and 56 % of control and 63 % of control. For the same molecule, the T/C [2] was 33 % of control and 55 % of control and the T/C (dose: 60.0 mg/kg/injection, vehicle: saline) was 8 % of control and 21 % of control.
